We go through two compounds from patent publication US20180116993A1, “MODULATORS OF FARNESOID X RECEPTOR AND METHODS FOR THE USE THEREOF” (XIAMEN UNIVERSITY, priority 2015, published 2018).

Marks after values point to notes of the source that are not given here.

The test system of assay [1] is KK-Ay mice. As to the kind of experiment: Serum metabolic parameters in high-fat diet fed diabetic KK-Ay mice. It is filed as in vivo, mouse. To be noted: serum, 20 mg/kg for 14 days. An excerpt:
KK-Ay mice (KK/Upj-Ay/J) are animal models with moderate obese and diabetes with insulin resistance. KK-Ay mice develop hyperglycemia, hyperinsulinemia, glucose intolerance and obesity as well as fat accumulation in liver by eight weeks of age. Pancreatic islets are hypertrophied and the β-cells are degranulated. db/db mice (BKS.Cg-Dockr+/+ Lepr^db/Jnju) are animal models of type II diabetes. They have the phenotype of insulin resistance. These model mice were used to detect the functions of our compounds on metabolic diseases.
(§1) 8-10 weeks age mice were maintained as example 4, and fed with high-fat diet (Research Diets, D12492). Mice were i.p. injected with compounds once daily for 7, 10, 11 or 14 days as indicated in each table. After the last compounds injection, mice were fasted for 6 hours with free access to water, and then sacrificed. Part of each liver was fixed in 4% paraformaldehyde for H&E staining, and other liver tissues were stored in liquid nitrogen for enzyme activity measurement and gene expression analysis by RT-PCR. The serums were collected to measure metabolic parameters, including serum glucose, insulin, cholesterol, free fatty acid (FFA) and triglyceride levels. Serum glucose was analyzed using glucose oxidase method (Applygen, Beijing, China). The blood glucose in Table 11 was measured with Berenger blood glucose test strips (B/BRAUN, German) from blood by cutting mice tail after the 6th injection and following fast for 16 hours. Serum cholesterol and FFA were analyzed using Cholesterol Assay Kit and FFA Assay Kit (Bioassay Systems, USA; Nanjing Jiancheng Bioengineering Institute, China; FFA ELISA, R&D, USA), respectively. Serum triglyceride was analyzed using Triglyceride Assay Kit (Bioassay Systems, USA; WAKO Chemicals Inc., Japan; Applygen, Beijing, China). Liver triglyceride was analyzed using Tissue triglyceride assay kit (Applygen, Beijing, China). Serum insulin levels were measured by the Ultra Sensitive Mouse Insulin ELISA Kit (Crystal Chem. Inc., USA). RNA was isolated using Tissue RNA kit (Omega Bio-Tek, GA). The first strand cDNA were obtained by TAKARA reverse transcription kit. Real-time quantitative PCR were performed on a CFX96™ Real-Time PCR Detection System (Bio-Rad) using SYBR Premix Ex Taq™ (TAKARA). Relative mRNA expression levels were normalized to actin levels.

The test system of assay [2] is genes related to metabolism in liver of KK-Ay mice. As to the kind of experiment: Liver mRNA levels of metabolism genes in KK-Ay mice (RT-PCR). Type of assay: in vivo, mouse. To be noted: 20 mg/kg for 14 days. On the procedure: as §1
Triglyceride accumulation is due to the imbalance between triglyceride synthesis and clearance. One key gene controlling hepatic lipogenesis is SREBP-1c, whose up-regulation has been implicated in occurrence of hepatic steatosis. Liver-specific inhibition of ChREBP improves hepatic steatosis and insulin resistance in ob/ob mice (see e.g., Renaud (2006) Diabetes, 55(8):2159-70.). […] The gene expression pattern in KK-Ay mice liver further explained the underlying molecular mechanism for the reduction of lipid accumulation by the FXR-ligand compounds (Table 9).

The mark [3] stands for this setting: vehicle = 1, listed as tschimganine.
Where [4] appears, read: vehicle = 1, listed as feroline.

As to `COc1cc(C(=O)O[C@H]2C[C@H]3CC[C@]2(C)C3(C)C)ccc1O` [Tschimganine], in assay [1], the “FFA (μM)” value is recorded as 151 ± 14^a μM, the “Glucose (mg/dl)” value is 123 ± 10^b mg/dl and the “Triglyceride (mg/dl)” value was 134 ± 15^a mg/dl. In assay [2] (vehicle = 1), the “mRNA levels in liver, CHREBP” value is given as 0.43 ± 0.08^a; the “mRNA levels in liver, FDFT1” value is recorded as 0.77 ± 0.06^a; the “mRNA levels in liver, G6PC” value is 0.59 ± 0.08^a; the “mRNA levels in liver, GK” value is 0.54 ± 0.07^a. Besides, the “mRNA levels in liver, SREBP1c” value in assay [2] (vehicle = 1) is reported as 0.38 ± 0.05^a. In assay [2] (setting [3]), the “mRNA levels in liver, CHREBP” value is “decreased” and the “mRNA levels in liver, SREBP1c” value is on record as “decreased”.
With `C/C1=C\CCC(C)(O)/C=C/C(C(C)C)C(OC(=O)c2ccc(O)cc2)C1` (stereo not drawn) [Feroline], in assay [1], the “Cholesterol (mg/dl)” value was 116 ± 10^a mg/dl, the “FFA (μM)” value is on record as 122 ± 30^b μM, the “Glucose (mg/dl)” value was 177 ± 16^a mg/dl and the “Triglyceride (mg/dl)” value is given as 136 ± 8^a mg/dl. In addition, in assay [2] (vehicle = 1), the “mRNA levels in liver, CHREBP” value is on record as 0.4 ± 0.1^b; the “mRNA levels in liver, FDFT1” value is recorded as 0.75 ± 0.1^a; the “mRNA levels in liver, G6PC” value is 0.66 ± 0.07^a; the “mRNA levels in liver, GK” value amounted to 0.74 ± 0.11. The “mRNA levels in liver, SREBP1c” value in assay [2] (vehicle = 1) was 0.3 ± 0.08^b. For the same compound, in assay [2] (setting [4]), the “mRNA levels in liver, CHREBP” value is listed as “decreased” and the “mRNA levels in liver, SREBP1c” value is given as “decreased”.
